Data as given in publication PMC4587093 (Biochimica et biophysica acta, 2015).

Legend:
CYP1D1 = target: T1, CYP1D1 (Danio rerio, UniProt A0ACM8Q602); format: biochemical
T1 sequence (A0ACM8Q602 1-512): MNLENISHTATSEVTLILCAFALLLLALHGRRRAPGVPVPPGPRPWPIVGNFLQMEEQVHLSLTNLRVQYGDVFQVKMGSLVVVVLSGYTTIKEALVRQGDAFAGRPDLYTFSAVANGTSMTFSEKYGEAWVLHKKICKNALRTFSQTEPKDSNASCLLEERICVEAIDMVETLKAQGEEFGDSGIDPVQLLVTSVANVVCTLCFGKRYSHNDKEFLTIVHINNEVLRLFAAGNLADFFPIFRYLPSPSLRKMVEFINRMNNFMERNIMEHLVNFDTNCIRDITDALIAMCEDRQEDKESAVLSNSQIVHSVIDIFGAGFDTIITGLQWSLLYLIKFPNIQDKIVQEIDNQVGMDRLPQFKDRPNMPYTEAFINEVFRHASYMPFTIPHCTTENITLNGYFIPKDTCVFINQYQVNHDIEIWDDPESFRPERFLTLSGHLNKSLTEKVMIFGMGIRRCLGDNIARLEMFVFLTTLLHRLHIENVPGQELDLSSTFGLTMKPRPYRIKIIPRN

CYP1C2 = target: T2, CYP1C2 (Danio rerio, UniProt A0AC58HLV5); format: biochemical
T2 sequence (A0AC58HLV5 1-514): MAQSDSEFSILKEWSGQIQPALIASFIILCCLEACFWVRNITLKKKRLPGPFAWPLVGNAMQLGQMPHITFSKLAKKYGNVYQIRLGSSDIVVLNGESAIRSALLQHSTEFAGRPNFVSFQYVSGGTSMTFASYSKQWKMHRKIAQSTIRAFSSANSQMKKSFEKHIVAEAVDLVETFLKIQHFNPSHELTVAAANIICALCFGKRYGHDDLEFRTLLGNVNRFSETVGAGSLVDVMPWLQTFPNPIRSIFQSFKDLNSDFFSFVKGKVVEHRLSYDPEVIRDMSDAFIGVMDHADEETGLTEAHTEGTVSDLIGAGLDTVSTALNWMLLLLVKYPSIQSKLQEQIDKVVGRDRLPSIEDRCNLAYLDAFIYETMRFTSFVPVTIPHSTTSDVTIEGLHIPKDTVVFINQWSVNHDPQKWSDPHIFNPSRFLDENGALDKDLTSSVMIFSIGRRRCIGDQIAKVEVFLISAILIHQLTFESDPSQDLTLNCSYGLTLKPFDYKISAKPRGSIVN
T2 sequence (P16603 2-691 partner): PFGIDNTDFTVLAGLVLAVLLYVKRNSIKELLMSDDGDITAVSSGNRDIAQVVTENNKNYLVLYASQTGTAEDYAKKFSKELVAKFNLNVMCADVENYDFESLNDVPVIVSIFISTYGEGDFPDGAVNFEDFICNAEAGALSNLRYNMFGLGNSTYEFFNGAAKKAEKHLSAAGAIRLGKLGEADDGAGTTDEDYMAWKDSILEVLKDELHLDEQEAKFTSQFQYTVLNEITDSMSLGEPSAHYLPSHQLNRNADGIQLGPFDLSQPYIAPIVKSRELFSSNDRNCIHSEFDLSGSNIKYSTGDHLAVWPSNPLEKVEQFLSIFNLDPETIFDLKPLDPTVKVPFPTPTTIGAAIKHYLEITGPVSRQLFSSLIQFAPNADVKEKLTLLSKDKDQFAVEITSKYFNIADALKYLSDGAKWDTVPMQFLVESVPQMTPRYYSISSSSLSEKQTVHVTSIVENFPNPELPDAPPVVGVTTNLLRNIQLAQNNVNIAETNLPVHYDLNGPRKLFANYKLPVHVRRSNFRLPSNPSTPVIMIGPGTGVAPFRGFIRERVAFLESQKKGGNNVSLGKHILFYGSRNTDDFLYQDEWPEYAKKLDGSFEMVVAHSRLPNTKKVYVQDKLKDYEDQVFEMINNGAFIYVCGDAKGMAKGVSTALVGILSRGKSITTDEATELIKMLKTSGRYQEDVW

CYP1C1 [1] = target: T3, CYP1C1 (Danio rerio, UniProt A0PJ31); format: biochemical
T3 sequence (A0PJ31 1-523): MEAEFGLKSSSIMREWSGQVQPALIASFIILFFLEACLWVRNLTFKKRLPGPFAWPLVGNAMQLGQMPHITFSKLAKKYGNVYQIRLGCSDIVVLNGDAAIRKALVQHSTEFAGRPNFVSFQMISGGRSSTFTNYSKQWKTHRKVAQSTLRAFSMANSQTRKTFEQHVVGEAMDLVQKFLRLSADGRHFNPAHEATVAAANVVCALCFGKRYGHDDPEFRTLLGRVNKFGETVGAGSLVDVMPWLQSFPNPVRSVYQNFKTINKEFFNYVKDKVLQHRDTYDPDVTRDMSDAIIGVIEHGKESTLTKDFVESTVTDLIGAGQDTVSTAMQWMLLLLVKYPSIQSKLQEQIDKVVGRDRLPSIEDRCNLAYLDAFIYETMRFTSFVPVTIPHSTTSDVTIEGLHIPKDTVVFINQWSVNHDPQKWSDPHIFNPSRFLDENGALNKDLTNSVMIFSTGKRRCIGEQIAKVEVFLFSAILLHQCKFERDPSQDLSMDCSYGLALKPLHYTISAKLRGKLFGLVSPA

CYP1C1 [2] = target: T3, CYP1C1; format: cell-based
CYP1A = target: T4, CYP1A (Danio rerio, UniProt A0A8M1PCF4); experiment: O-deethylation rate; format: cell-based
T4 sequence (A0A8M1PCF4 1-519): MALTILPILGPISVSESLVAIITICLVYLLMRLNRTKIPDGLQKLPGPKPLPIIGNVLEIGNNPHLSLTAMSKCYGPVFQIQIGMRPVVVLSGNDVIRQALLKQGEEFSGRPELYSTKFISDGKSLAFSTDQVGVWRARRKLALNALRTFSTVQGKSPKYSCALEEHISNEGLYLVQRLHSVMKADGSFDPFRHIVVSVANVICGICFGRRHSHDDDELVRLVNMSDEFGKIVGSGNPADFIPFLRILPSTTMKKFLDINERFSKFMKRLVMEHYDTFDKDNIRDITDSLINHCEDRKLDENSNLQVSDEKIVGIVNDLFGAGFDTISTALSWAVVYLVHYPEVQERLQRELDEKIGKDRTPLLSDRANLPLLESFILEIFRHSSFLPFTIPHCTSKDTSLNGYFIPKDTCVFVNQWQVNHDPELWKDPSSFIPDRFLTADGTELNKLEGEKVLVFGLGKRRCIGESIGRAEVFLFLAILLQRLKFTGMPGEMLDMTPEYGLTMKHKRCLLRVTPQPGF

CYP1C1 [3] = target: T3, CYP1C1; experiment: kcat for O-demethylation; format: cell-based
Km for O-deethylation = substrate: CCOc1ccc2nc3ccc(=O)cc-3oc2c1; experiment: Km for O-deethylation; format: biochemical, Danio rerio; conditions: heme; NADPH

c1ccc2c(c1)cc1ccc3cccc4ccc2c1c34 [BaP, benzo[a]pyrene]
Ki (CYP1D1): 12000 nM
Ki (CYP1C2): 200 nM
Ki (CYP1C1 [1]): 60 nM

CCOc1ccc2c(C(F)(F)F)cc(=O)oc2c1 [EFC, 7-ethoxy-4-trifluoromethyl-coumarin]
kcat (mol substrate oxidized/mol P450/min) ^a / EFC ^c, ^d (CYP1C1 [2]): 1.51 ± 0.14 mol substrate oxidized/mol P450/min

CCOc1ccc2nc3ccc(=O)cc-3oc2c1 [ER, 7-ethoxyresorufin]
CYP expressed via pYES/DEST52 ^a / 1A (CYP1A): 89.3 ± 1.9 pmol min^−1 mg^−1 microsomal protein

COc1ccc2nc3ccc(=O)cc-3oc2c1 [MR, 7-methoxyresorufin]
kcat (mol substrate oxidized/mol P450/min) ^b / MR (CYP1C1 [3]): 4.9 ± 0.6 mol substrate oxidized/mol P450/min

B1: CYP1C2 (Danio rerio) (protein)
chain: MAQSDSEFSILKEWSGQIQPALIASFIILCCLEACFWVRNITLKKKRLPGPFAWPLVGNAMQLGQMPHITFSKLAKKYGNVYQIRLGSSDIVVLNGESAIRSALLQHSTEFAGRPNFVSFQYVSGGTSMTFASYSKQWKMHRKIAQSTIRAFSSANSQMKKSFEKHIVAEAVDLVETFLKIQHFNPSHELTVAAANIICALCFGKRYGHDDLEFRTLLGNVNRFSETVGAGSLVDVMPWLQTFPNPIRSIFQSFKDLNSDFFSFVKGKVVEHRLSYDPEVIRDMSDAFIGVMDHADEETGLTEAHTEGTVSDLIGAGLDTVSTALNWMLLLLVKYPSIQSKLQEQIDKVVGRDRLPSIEDRCNLAYLDAFIYETMRFTSFVPVTIPHSTTSDVTIEGLHIPKDTVVFINQWSVNHDPQKWSDPHIFNPSRFLDENGALDKDLTSSVMIFSIGRRRCIGDQIAKVEVFLISAILIHQLTFESDPSQDLTLNCSYGLTLKPFDYKISAKPRGSIVN
Km (Km for O-deethylation): 0.11 ± 0.01 µM

B2: CYP1C1 (Danio rerio) (protein)
chain: MEAEFGLKSSSIMREWSGQVQPALIASFIILFFLEACLWVRNLTFKKRLPGPFAWPLVGNAMQLGQMPHITFSKLAKKYGNVYQIRLGCSDIVVLNGDAAIRKALVQHSTEFAGRPNFVSFQMISGGRSSTFTNYSKQWKTHRKVAQSTLRAFSMANSQTRKTFEQHVVGEAMDLVQKFLRLSADGRHFNPAHEATVAAANVVCALCFGKRYGHDDPEFRTLLGRVNKFGETVGAGSLVDVMPWLQSFPNPVRSVYQNFKTINKEFFNYVKDKVLQHRDTYDPDVTRDMSDAIIGVIEHGKESTLTKDFVESTVTDLIGAGQDTVSTAMQWMLLLLVKYPSIQSKLQEQIDKVVGRDRLPSIEDRCNLAYLDAFIYETMRFTSFVPVTIPHSTTSDVTIEGLHIPKDTVVFINQWSVNHDPQKWSDPHIFNPSRFLDENGALNKDLTNSVMIFSTGKRRCIGEQIAKVEVFLFSAILLHQCKFERDPSQDLSMDCSYGLALKPLHYTISAKLRGKLFGLVSPA
Km (Km for O-deethylation): 0.085 ± 0.005 µM
